Test results taken from paper PMC5267425, “Identification of small molecule modulators of HIV-1 Tat and Rev protein accumulation” (Retrovirology, 2017).
Where a SMILES comes first, the peptide text is derived from it. The star is where a group is joined. Cbz = O=C(OCc1ccccc1)*

Tests used:
[1] = test system: HIV-1 Tat (p14, p16) and Gag; assay: Rescue of Tat/Gag expression by proteasome inhibitor MG132; assay type: cell-based; settings: MG132 10 μM for 8 h, with 791, 833 or 892
Method: To assess effect of compounds on HIV-1 Tat stability, the decay of HIV-1 Tat levels was compared between DMSO-treated and compound-treated protein lysates in the presence of cycloheximide. In the first set of experiments, HIV-1 gene expression was induced with doxycylin (dox) for 24 h then 10 μg/mL cycloheximide was added to block new protein synthesis in combination with either DMSO or the compounds. Cells were harvested every 2 h and Tat protein levels measured by western blot. Quantification of the relative intensity of the detected bands was performed using ImageLab software (BioRad) and normalized to corresponding bands of the loading control (GAPDH) from at least three independent experiments. To determine whether the compounds’ effect on HIV-1 gene expression could be reversed by inhibition of the proteasome, compound treatment assay was performed as previously described with the addition of 10 μM MG132 (Sigma-Aldrich) to compound-treated cells 8 h prior to harvesting. Equal amounts of protein were run on 13 or 14% gels by SDS-PAGE, blotted and probed with antibodies for Tat and GAPDH. Quantification of the relative intensity of the detected bands was performed using ImageLab software (BioRad) and normalized to corresponding bands of the loading control (GAPDH) from at least three independent experiments.

[2] = test system: p53; parameters: method as in PMID 27283735; settings: cited from earlier work
[3] = test system: total protein synthesis in HeLa HIVrtTA∆Mls cells; assay: SUnSET total protein synthesis; assay type: cell-based; settings: negative control
Method: The effect of the compounds on nascent protein synthesis was measured by surface sensing of translation (SUnSET) as described by Schmidt et al.. Cells were incubated with puromycin, an aminoacyl tRNA analog, to allow puromycin incorporation into newly translated peptides and prevention of further ribosomal elongation by chain termination. To assess the effect of the compounds on protein translation, cells were prepared and treated as described above, but were incubated with 10 μg/mL of puromycin for a period of 30 min prior to harvesting cell lysates for protein analysis. Protein concentration of cell lysates was quantified by Bradford assay and equal amounts of protein (30–35 μg) was run on either 10% or 4–15% (gradient) gels. Following transfer to PVDF (BioRad), blots were probed with mouse monoclonal antibody to puromycin (anti-12D10, EMD Millipore). Blots were developed using ECL Plus (Perkin-Elmer) or Clarity (BioRad) and imaged using the ChemiDoc MP Imager (BioRad). To quantify the levels of protein synthesis, the volume intensity in each lane of compound-treated sample was calculated relative to the DMSO-treated sample and normalized to GAPDH loading control using ImageLab software (BioRad) from at least four independent experiments.

[4] = test system: HIV-1 US, SS and MS RNAs; assay: qRTPCR of HIV-1 RNAs in 293T cells transfected with pHxbc2 R-/RI-; assay type: cell-based; settings: 20 nM, 24 h, 293T (Figure S6)
Method: Samples were processed and assayed as previously described using the BioRad Aurum Total RNA Lysis Kit (BioRad) as per manufacturer’s instructions with the addition of Turbo DNase (Ambion). Purified RNA (0.5–2 μg) was reverse transcribed using M-MLV (Invitrogen) to generate complementary DNA (cDNA). HIV-1 and actin mRNA levels in DMSO- and compound-treated samples were quantified by qPCR using the Mastercycler ep realplex (Eppendorf) as described by Wong et al.. Gene quantification was evaluated using the absolute quantification method, normalized to β-actin expression, and expressed relative to DMSO-treatment.
Additional file 1: Figure S1. […] Cell viability was measured by an XTT assay. […] Cells were analyzed after 24 h incubation with the compounds at the indicated concentrations ranging between 0–47 μM (791), 0–5 μM (833), or 0–62.5 μM (892). Results are expressed as the percentage (%) of viable cells relative to DMSO treatment ±SEM of two independent experiments performed in triplicate. […] Images are cropped to show a representative field of view. b The dose range of the compounds which inhibit HIV-1 GagGFP expression in HeLa rtTA HIVGagGFP C7 cells was measured by mean fluorescence intensity and expressed relative to fluorescence intensity in DMSO-treated samples (N ≥ 3, *p ≤ 0.05, **p ≤ 0.01, and ***p ≤ 0.001). […]

Compound: CC(C)C[C@@H](C=O)NC(=O)[C@H](CC(C)C)NC(=O)[C@H](CC(C)C)NC(=O)OCc1ccccc1 [MG132, reference compound] (Cbz-Leu-Leu-Leu-aldehyde)
- production of HIV-1 Gag on addition of MG132 [1]: did not restore

Compound: COc1cc(/C=C/C(=O)CC(=O)/C=C/c2ccc(O)c(OC)c2)ccc1O [curcumin]
- Tat and p53 levels [2]: reduces

Compound: C[C@@H]1C[C@@H]([C@H](O)CC2CC(=O)NC(=O)C2)C(=O)[C@@H](C)C1 [cycloheximide, reference compound]
- puromycin signal (newly synthesized polypeptides) [3]: little

Compound: CCC(=C/[C@H](C)C/C=C/C(C)=C/[C@@H](C)C(=O)[C@@H](C)[C@H](O)[C@@H](C)C/C(C)=C/C(=O)O)/C=C/[C@@H]1OC(=O)C=C[C@@H]1C [leptomycin B]
- HIV-1 MS RNA abundance [4]: little or no change
- HIV-1 US and SS RNA levels [4]: dramatic reduction
